# US20230381774A1, “MICROFLUDIC LAB-ON-CHIP DEVICE, MATRIX, SMALL MOLECULES AND THREE-DIMENSIONAL SPHEROIDS FOR CELL REPROGRAMMING” (The Regents of the University of California, priority 2022, published 2023)
# “Also recorded” adds a separate entry of the source.
# Key:
# [1] = tested on: BAM-transduced fibroblasts; experiment: iN reprogramming of BAM-transduced fibroblasts with chemical/siRNA treatment and microfluidic squeezing (Tuj1 staining, day 7); type: cell-based, mouse; conditions: for iN reprogramming efficiency: agent alone without squeezing, vs control, Bix01294 1 μM, JIB-04 100 nM, Decitabine 0.5 μM, 24 hours; for nuclear deformation-induced iN reprogramming efficiency: pre-treatment followed by squeezing in 7-μm microchannels, vs squeezed-only group; for increase of iN conversion: alone, at its optimal concentration
# Procedure: Fibroblasts were isolated from ear tissues of adult (1 month-old) C57BL/6 mice, Tau-EGFP reporter mice (Jackson Laboratory, 004779) and R26-M2rtTA;Col1a1-tetO-H2B-GFP compound mutant mice (Jackson Laboratory, 016836), and expanded in fibroblast medium: DMEM (Gibco, 11965), 10% fetal bovine serum (FBS; Gibco, 26140079) and 1% penicillin/streptomycin (GIBCO, 15140122). For all experiments, passage-2 cells were used and synchronized upon reaching 80% confluency using DMEM with 1% FBS for 24 hours before the transduction with viruses containing BAM constructs. The following day (day 0) the medium was changed to mouse embryonic fibroblasts (MEF) medium containing doxycycline (2 ng/ml, Sigma) to initiate the expression of the transgenes and thus, reprogramming. After 6 hours, transduced fibroblasts were passaged, and either subjected to microfluidic deformation using microchannels of various widths. Cells were then seeded onto glass slides coated with 0.1 mg/mL fibronectin (ThermoFisher, 33016015) overnight at a density of 3,000 cells/cm^2. Twenty-four hours later (day 1), cells were cultured in N2B27 medium: DMEM/F12 (Gibco, 11320033), N-2 supplement (Gibco, 17502048), B-27 supplement (Gibco, 17504044), 1% penicillin/streptomycin, and doxycycline (2 ng/ml), and half medium changes were performed every 2 days. On day 7 after microfluidic deformation, cells were fixed and stained for Tuj1 to determine the reprogramming efficiency. iN cells were identified based on positive Tuj1 staining and a neuronal morphology. The reprogramming efficiency was determined as the percentage of iN cells on day 7 relative to the number of the cells initially seeded. For long-term studies where maturation and functionality of the iN cells were examined, cells were kept in culture for 5 weeks. Reprogramming of iPSC from wild-type fibroblasts was performed as described previously^18.
# To determine the role of H3K9 methylation in microfluidic device-induced iN reprogramming, BAM-transduced fibroblasts were treated with the H3K9 methyltransferase inhibitor Bix-01294 (Cayman chemical, 13124) or demethylase inhibitor JIB-04 (Cayman chemical, 15338) at the indicated concentrations for 24 hours prior to introduction into the microdevice. Parallel conditions with DMSO served as a control. The iN reprogramming efficiency was determined via Tuj1 staining 7 days after squeezing.
# To determine the involvement of ion channels in microfluidic device-induced iN reprogramming, calcium channel blocker Amlodipine (Cayman chemical, 14838), potassium channel blocker Quinine (Cayman chemical, 23958) and sodium channel blocker procainamide (Cayman chemical, 24359) were used to inhibit calcium, potassium, and sodium ion channels, respectively. BAM-transduced fibroblasts were treated with small molecule blockers at the indicated concentrations for 12 hours prior to being introduced into the microfluidic device. Parallel conditions with DMSO served as a control. The iN reprogramming efficiency was determined via Tuj1 staining 7 days after squeezing.
# [2] = tested on: BAM-transduced fibroblasts; experiment: iN reprogramming of BAM-transduced fibroblasts with cytoskeletal and adhesion inhibitors (TUBB3+ iN cells, 2 weeks); type: cell-based, mouse; conditions: Y-27632 20 μM, nocodazole 0.3 μM, cytochalasin D 1 μM, jasplakinolide 0.05 μM; U0126 various doses
# Procedure: To examine whether these changes in cell stiffness, actin structure and expression of contractility-mediating genes were involved in iN reprogramming, we evaluated the effects of disrupting the cytoskeleton using small molecule inhibitors. For these experiments, BAM-transduced fibroblasts were reprogrammed as in FIG. 1A and chemical compounds known to perturb the cytoskeleton were added to the culture medium on day 1 to evaluate their effects on the reprogramming process. […] The reprogramming efficiency was determined as the percentage of TUBB3*-iN cells normalized to the number of cells plated at 24 hours post-seeding (i.e., day 0). First, we tested whether disruption of cytoskeletal contractility could influence the direct reprogramming of fibroblasts into neurons using blebbistatin, a non-muscle myosin II inhibitor^22-24. We observed that iN cells could be derived in the absence and presence of blebbistatin (FIG. 3A). […] In particular, treatment with 10 μM blebbistatin generated the highest number of iN cells and increased the reprogramming efficiency by approximately 4.5-fold compared to the control, therefore, this concentration was used in all subsequent experiments. […] As Ascl1 has been identified as a pioneer factor for iN reprogramming and transduction of Ascl1 alone is sufficient to generate iN cells^25,26, we further investigated whether blebbistatin could influence iN conversion by Ascl1 induction.
# After transduction, mouse fibroblasts were seeded onto multi-well tissue culture-treated polystyrene dishes (Falcon) coated with laminin (0.1 mg/ml, Corning) at 4,000 cells per cm^2. Twenty-four hours after seeding, the medium was replaced to MEF medium containing doxycycline (2 μg/ml, Sigma). The following day (i.e., day 1) the medium was changed to N3 medium (DMEM/F12 [GIBCO]+N2 supplement [Invitrogen]+B27 supplement [Invitrogen]+1% penicillin/streptomycin [Gibco]+ doxycycline [2 μg/ml, Sigma]) and the cultures were maintained in this medium for the duration of the experiments. For Ascl1-only reprogramming, N3 medium was further supplemented with BDNF (5 ng/ml, R&D systems) and GDNF (5 ng/ml, R&D systems) after day 7. For cytoskeletal and cell adhesion disruptions, Blebbistatin (Millipore), Y-27632 (20 μM; Cayman Chemical), Nocodazole (0.3 μM; Sigma), Cytochalasin D (1 μM; Sigma), Jasplakinolide (0.05 μM; Cayman Chemical) and PF573228 (Sigma) were administered in N3 medium on day 1 and for the first 7 days of reprogramming (unless stated otherwise) and used at the indicated concentrations. Culture medium was replenished every 2 days during reprogramming to maintain the activity of the small molecules. After culturing for the desired length (14 days for BAM and 21 days for Ascl1 only), the induced neuronal (iN) cells were analyzed and the reprogramming efficiency was determined.
# The reprogramming efficiency was determined by as the percentage of TUBB3^+ iN cells in each condition normalized to the number of cells plated at 24 hours post-seeding. Epifluorescence images were collected using a Zeiss Axio Observer.D1, Zeiss Axio Observer.Z1, and ImageXpress Micro XLS System (Molecular Devices), whereas confocal images were acquired using a Zeiss LSM710 microscope and Leica SP8 Confocal Laser Scanning microscope.
# [3] = tested on: primary human neonatal dermal fibroblasts (hNDFs); experiment: Spatial iN reprogramming in 3D spheroids (Tuj1 staining); type: cell-based; conditions: 3 days of reprogramming, relative to no-treatment controls
# Description: For the reduction to practice, primary human neonatal dermal fibroblasts (hNDFs) were transduced with doxycycline (Dox)-inducible lentiviral vectors for the BAMN factors. After Dox induction in monolayer to ensure unbiased activation of the transgenes, hNDFs were either plated onto Matrigel-coated cover slips as 2D controls or centrifuged in microwells to form 3D aggregates, or “spheroids” (FIG. 9A). The expression of neuron-specific β-tubulin III (Tuj1) was used as a marker of neuronal fate, as is convention. Tuj1 expression began earlier in spheroids than in 2D culture, appearing as early as day 2 (two days after Dox induction and one day after spheroid formation) (FIG. 9BC). To evaluate relative reprogramming efficiency, spheroids were replated onto Matrigel-coated cover slips after three days without enzymatic disaggregation.
# Direct reprogramming involves both disruption of the existing regulatory network (generally early on) and establishment of another. The initial nonspecific disruption is often mechanistically associated with cell cycle regulation, cell senescence, chromatin inactivation, and genome stability. To assess the impact of mechanobiological changes associated with spheroid culture on direct reprogramming, primary human neonatal dermal fibroblasts (hNDFs) were transduced with doxycycline (dox)-inducible lentiviral vectors for the BAMN factors. […]
# H3K9me3 = H3K9me3 level in fibroblasts (immunostaining); type: cell-based, mouse; conditions: for H3K9me3 level: agent alone
# Procedure: Samples collected for immunofluorescence staining at the indicated time points were washed once with PBS and fixed in 4% paraformaldehyde for 15 minutes. Samples were washed three times with PBS for 5 minutes each and permeabilized using 0.5% Triton X-100 for 10 minutes. After three subsequent PBS washes, samples were blocked with 5% normal donkey serum (NDS; Jackson Immunoresearch, 017000121) in PBS for 1 hour. Samples were incubated with primary antibodies (Supplementary Table S1 in Song et al.) in antibody dilution buffer (1% normal donkey serum (NDS)+0.1% Triton X-100 in PBS) for either 1 hour or overnight at 4° C. followed by three PBS washes and a 1-hour incubation with Alexa Fluor® 488- and/or Alexa Fluor® 546-conjugated secondary antibodies (Molecular Probes). Nuclei were stained with DAPI in PBS for 10 minutes. Epifluorescence images were collected using a Zeiss Axio Observer Z1 inverted fluorescence microscope and analyzed using ImageJ. Confocal images were collected using a Leica SP8-STED/FLIM/FCS Confocal and analyzed using ImageJ.
# Average lamin and histone marker intensities per nuclei were quantified using an ImageJ macro. Gaussian blur, thresholding, watershed, and analyze particle functions were applied to the DAPI channel to create individual selections for each nucleus. This mask was applied to the corresponding stain image to measure the average fluorescence intensity within each nucleus.
# histone marks = experiment: Immunofluorescence of histone marks in non-transduced fibroblasts; type: cell-based, mouse; conditions: for euchromatin marks (AcH3, H3K4me3, H3K4me1): global, 10 μM blebbistatin or 5 μM PF573228, 2 hours, vs control; for histone trends compared with blebbistatin: other cytoskeletal compounds
# Procedure: For immunostaining, cells were fixed with 4% paraformaldehyde (Electron Microscopy Sciences), permeabilized with 0.5% Triton-X-100 (Sigma), and blocked with 5% donkey serum (Jackson Immunoresearch) in phosphate buffered saline (PBS). For actin-cytoskeleton staining, samples were incubated with fluorescein isothiocyanate-conjugated phalloidin (Invitrogen) for 1 hour. Primary antibodies were incubated for 1 hour at room temperature or overnight at 4° C., followed by 1-hour incubation with Alexa 488 and/or Alexa 546-labeled secondary antibodies (Molecular Probes). Nuclei were stained with 4,6-diamino-2-phenylindole (DAPI) (Invitrogen).
# Quantification of histone intensity per nuclei was performed using an ImageJ macro. DAPI-stained nuclei were segmented using gaussian blur, thresholding, watershed, and analyze particle functions to identify individual nuclei. This mask was applied to the corresponding stained fluorescence channel to quantify the average fluorescence intensity within each nucleus.
smiles,measurement,setting,value
CCCC(CCC)C(=O)O [valproic acid],iN reprogramming efficiency,[1],slightly increased iN reprogramming efficiency
same,nuclear deformation-induced iN reprogramming efficiency,[1],additive to mechanical squeezing
N#CC(=C(/N)Sc1ccccc1N)/C(C#N)=C(\N)Sc1ccccc1N [U0126],reprogramming efficiency relative to control,[2],not significantly altered
C[C@@H](N)[C@H]1CC[C@H](C(=O)Nc2ccncc2)CC1 [Y-27632],reprogramming efficiency relative to control,[2],"increased the yield of iN cells similar to blebbistatin, although to a lesser degree"
COc1cc(-c2cc(-c3cccc(O)c3)cnc2N)cc(OC)c1OC [K02288],"spatial Tuj1+ reprogramming patterns, inhibitor alone",[3],did not affect spatial Tuj1+ reprogramming patterns
Cc1cccc(-c2nn(C(=S)Nc3ccccc3)cc2-c2ccnc3ccccc23)n1 [A83-01],"spatial Tuj1+ reprogramming patterns, inhibitor alone",[3],did not affect spatial Tuj1+ reprogramming patterns
Clc1ccc(N/N=C(\c2ccccc2)c2ccccn2)nc1 [JIB-04],H3K9me3 level,H3K9me3,significantly increased H3K9me3
same,decrease of H3K9me3 by squeezing,"H3K9me3; pre-treated for 24 hours, then 7-μm channels",much less than the group without JIB-04 treatment
same,iN reprogramming efficiency,[1],reduced the reprogramming efficiency compared to the control
same,nuclear deformation-induced iN reprogramming efficiency,[1],strikingly suppressed nuclear deformation-induced iN reprogramming
COc1cc2nc(N3CCCN(C)CC3)nc(NC3CCN(Cc4ccccc4)CC3)c2cc1OC [Bix01294],H3K9me3 level,H3K9me3,specifically suppressed H3K9me3 in a dose-dependent manner
same,iN reprogramming efficiency,[1],partially mimicked the squeezing effect on the reprogramming efficiency
same,increase of iN conversion,[1],about 2 fold
same,nuclear deformation-induced iN reprogramming efficiency,[1],slightly increased the reprogramming efficiency compared to the squeezed-only group
COC(=O)Nc1nc2ccc(C(=O)c3cccs3)cc2[nH]1 [nocodazole],"euchromatin marks (AcH3, H3K4me3, H3K4me1)",histone marks,"decreasing euchromatin marks (e.g., AcH3)"
same,histone trends compared with blebbistatin,histone marks,no other cytoskeletal disrupting compounds
same,reprogramming efficiency relative to control,[2],resulted in a reduction in the reprogramming efficiency; also recorded: inhibiting iN conversion
C=C1[C@@H](C)[C@H]2[C@H](Cc3ccccc3)NC(=O)[C@]23[C@H](OC(C)=O)/C=C/[C@@](C)(O)C(=O)[C@@H](C)C/C=C/[C@H]3[C@@H]1O [cytochalasin D],"euchromatin marks (AcH3, H3K4me3, H3K4me1)",histone marks,"decreasing euchromatin marks (e.g., AcH3)"
same,histone trends compared with blebbistatin,histone marks,no other cytoskeletal disrupting compounds
same,reprogramming efficiency relative to control,[2],reduced the reprogramming efficiency relative to control; also recorded: inhibiting iN conversion
Nc1ncn([C@H]2C[C@H](O)[C@@H](CO)O2)c(=O)n1 [Decitabine],increase of iN conversion,[1],about 2 fold
C/C1=C\[C@H](C)C[C@H](C)OC(=O)C[C@H](c2ccc(O)cc2)NC(=O)[C@@H](Cc2c(Br)[nH]c3ccccc23)N(C)C(=O)[C@H](C)NC(=O)[C@@H](C)C1 [jasplakinolide],"euchromatin marks (AcH3, H3K4me3, H3K4me1)",histone marks,"decreasing euchromatin marks (e.g., AcH3)"
same,histone trends compared with blebbistatin,histone marks,no other cytoskeletal disrupting compounds
same,reprogramming efficiency relative to control,[2],reduced the reprogramming efficiency relative to control; also recorded: inhibiting iN conversion
